Laboratory results from the NIST ThermoML archive (doi:10.1016/j.jct.2016.10.023).
Numbers after ± are expanded uncertainties.

Experiment: xn = mol fraction of the nth substance listed
Conditions: Constant-volume piezometry

CCCCC [pentane] + CCCO
mass density [kg/m3]
Conditions	Fluid (supercritical or subcritical phases)	Gas
518.15 K, 4877 kPa, x1 = 0.2	220.15 ± 1.8	–
518.15 K, 4965 kPa, x1 = 0.2	259.26 ± 1.9	–
518.15 K, 4994 kPa, x1 = 0.2	272.43 ± 1.9	–
518.15 K, 5010 kPa, x1 = 0.2	290.61 ± 2.1	–
523.15 K, 954 kPa, x1 = 0.5	–	15.52 ± 0.05
523.15 K, 1314 kPa, x1 = 0.8	–	22.52 ± 0.07
523.15 K, 1549 kPa, x1 = 0.2	–	24.93 ± 0.08
523.15 K, 1732 kPa, x1 = 0.5	–	29.98 ± 0.09
523.15 K, 1978 kPa, x1 = 0.8	–	36.69 ± 0.11
523.15 K, 2284 kPa, x1 = 0.5	–	40.49 ± 0.12
523.15 K, 2704 kPa, x1 = 0.5	–	51.09 ± 0.16
523.15 K, 2890 kPa, x1 = 0.8	–	58.41 ± 0.18
523.15 K, 3111 kPa, x1 = 0.2	–	53.01 ± 0.17
523.15 K, 3416 kPa, x1 = 0.5	–	67.52 ± 0.21
523.15 K, 3421 kPa, x1 = 0.8	–	73.79 ± 0.23
523.15 K, 3614 kPa, x1 = 0.5	–	72.6 ± 0.23
523.15 K, 3631 kPa, x1 = 0.9	83.38 ± 0.42	–
523.15 K, 4037 kPa, x1 = 0.2	–	91.41 ± 0.29
523.15 K, 4041 kPa, x1 = 0.5	–	88.91 ± 0.28
523.15 K, 4261 kPa, x1 = 0.5	–	95.85 ± 0.3
523.15 K, 4356 kPa, x1 = 0.8	106.4 ± 0.54	–
523.15 K, 4459 kPa, x1 = 0.2	114.35 ± 0.68	114.35 ± 0.39
523.15 K, 4600 kPa, x1 = 0.9	123.35 ± 0.63	–
523.15 K, 4817 kPa, x1 = 0.9	134.12 ± 0.69	–
523.15 K, 4864 kPa, x1 = 0.2	150.34 ± 0.83	–
523.15 K, 4871 kPa, x1 = 0.5	121.89 ± 0.63	–
523.15 K, 5043 kPa, x1 = 0.2	175.61 ± 1.1	–
523.15 K, 5108 kPa, x1 = 0.2	189.64 ± 1.1	–
523.15 K, 5158 kPa, x1 = 0.8	140.3 ± 0.72	–
523.15 K, 5206 kPa, x1 = 0.5	144.11 ± 0.75	–
523.15 K, 5208 kPa, x1 = 0.2	220.1 ± 1.2	–
523.15 K, 5292 kPa, x1 = 0.2	245.47 ± 1.3	–
523.15 K, 5316 kPa, x1 = 0.9	163.95 ± 0.84	–
523.15 K, 5328 kPa, x1 = 0.2	259.2 ± 1.4	–
523.15 K, 5343 kPa, x1 = 0.2	262.9 ± 1.4	–
523.15 K, 5359 kPa, x1 = 0.5	154.49 ± 0.8	–
523.15 K, 5364 kPa, x1 = 0.2	272.36 ± 1.4	–
523.15 K, 5370 kPa, x1 = 0.8	156.04 ± 0.8	–
523.15 K, 5423 kPa, x1 = 0.2	290.54 ± 1.6	–
523.15 K, 5483 kPa, x1 = 0.2	306.83 ± 1.6	–
523.15 K, 5508 kPa, x1 = 0.2	311.06 ± 1.6	–
523.15 K, 5518 kPa, x1 = 0.5	165.14 ± 0.88	–
523.15 K, 5551 kPa, x1 = 0.2	318.77 ± 1.7	–
523.15 K, 5586 kPa, x1 = 0.8	169.78 ± 0.87	–
523.15 K, 5668 kPa, x1 = 0.8	176.03 ± 0.92	–
523.15 K, 5707 kPa, x1 = 0.2	341.26 ± 1.8	–
523.15 K, 5707 kPa, x1 = 0.5	182.85 ± 0.94	–
523.15 K, 5717 kPa, x1 = 0.9	189.45 ± 0.97	–
523.15 K, 5731 kPa, x1 = 0.2	344.05 ± 1.8	–
523.15 K, 5763 kPa, x1 = 0.8	180.83 ± 0.92	–
523.15 K, 5911 kPa, x1 = 0.9	202.38 ± 1	–
523.15 K, 5913 kPa, x1 = 0.5	200.39 ± 1	–
523.15 K, 5925 kPa, x1 = 0.8	193.16 ± 0.99	–
523.15 K, 6011 kPa, x1 = 0.5	210.22 ± 1.4	–
523.15 K, 6117 kPa, x1 = 0.5	224.05 ± 1.5	–
523.15 K, 6195 kPa, x1 = 0.9	220.68 ± 1.1	–
523.15 K, 6235 kPa, x1 = 0.5	241.5 ± 1.3	–
523.15 K, 6236 kPa, x1 = 0.8	213.85 ± 1.1	–
523.15 K, 6242 kPa, x1 = 0.2	378.64 ± 1.9	–
523.15 K, 6294 kPa, x1 = 0.5	250.69 ± 1.4	–
523.15 K, 6320 kPa, x1 = 0.8	219.62 ± 1.1	–
523.15 K, 6339 kPa, x1 = 0.2	383.45 ± 1.9	–
523.15 K, 6353 kPa, x1 = 0.5	259.74 ± 1.3	–
523.15 K, 6399 kPa, x1 = 0.9	233.06 ± 1.2	–
523.15 K, 6454 kPa, x1 = 0.9	236.53 ± 1.2	–
523.15 K, 6480 kPa, x1 = 0.5	270.56 ± 1.4	–
523.15 K, 6513 kPa, x1 = 0.9	240.93 ± 1.2	–
523.15 K, 6560 kPa, x1 = 0.2	391.28 ± 2	–
523.15 K, 6567 kPa, x1 = 0.9	244.24 ± 1.2	–
523.15 K, 6580 kPa, x1 = 0.8	234.7 ± 1.2	–
523.15 K, 6628 kPa, x1 = 0.5	282.38 ± 1.4	–
523.15 K, 6748 kPa, x1 = 0.8	245.34 ± 1.2	–
523.15 K, 6923 kPa, x1 = 0.5	298.67 ± 1.5	–
523.15 K, 6963 kPa, x1 = 0.8	258.57 ± 1.3	–
523.15 K, 7242 kPa, x1 = 0.8	272.53 ± 1.4	–
523.15 K, 7295 kPa, x1 = 0.9	282.01 ± 1.4	–
523.15 K, 7431 kPa, x1 = 0.5	320 ± 1.8	–
523.15 K, 7549 kPa, x1 = 0.5	325.27 ± 1.8	–
523.15 K, 7577 kPa, x1 = 0.2	418.71 ± 2.1	–
523.15 K, 7600 kPa, x1 = 0.8	288.38 ± 1.5	–
523.15 K, 7736 kPa, x1 = 0.9	301.69 ± 1.5	–
523.15 K, 7896 kPa, x1 = 0.8	299.2 ± 1.5	–
523.15 K, 8097 kPa, x1 = 0.5	344.56 ± 1.7	–
523.15 K, 8118 kPa, x1 = 0.9	312.33 ± 1.6	–
523.15 K, 8453 kPa, x1 = 0.8	315.37 ± 1.6	–
523.15 K, 8992 kPa, x1 = 0.9	334.04 ± 1.7	–
523.15 K, 9070 kPa, x1 = 0.5	372.89 ± 1.9	–
523.15 K, 9148 kPa, x1 = 0.8	333.86 ± 1.7	–
523.15 K, 9669 kPa, x1 = 0.8	345.38 ± 1.7	–
523.15 K, 10260 kPa, x1 = 0.9	354.13 ± 1.8	–
523.15 K, 10494 kPa, x1 = 0.5	398.14 ± 2	–
523.15 K, 10826 kPa, x1 = 0.8	361.95 ± 1.8	–
523.15 K, 11137 kPa, x1 = 0.2	470.39 ± 2.4	–
523.15 K, 12130 kPa, x1 = 0.5	417.24 ± 2.1	–
523.15 K, 14557 kPa, x1 = 0.5	440.97 ± 2.2	–
523.15 K, 15550 kPa, x1 = 0.9	407.31 ± 2	–
523.15 K, 15764 kPa, x1 = 0.5	451.29 ± 2.3	–
523.15 K, 16344 kPa, x1 = 0.8	418.23 ± 2.1	–
523.15 K, 16569 kPa, x1 = 0.2	509.61 ± 2.6	–
523.15 K, 19192 kPa, x1 = 0.5	468.18 ± 2.4	–
523.15 K, 25897 kPa, x1 = 0.2	547.05 ± 2.8	–
523.15 K, 26649 kPa, x1 = 0.8	466.73 ± 2.4	–
523.15 K, 33702 kPa, x1 = 0.5	519.37 ± 2.6	–
523.15 K, 36508 kPa, x1 = 0.8	496.15 ± 2.5	–
523.15 K, 39812 kPa, x1 = 0.2	581.35 ± 2.9	–
533.15 K, 1342 kPa, x1 = 0.8	–	22.51 ± 0.07
533.15 K, 1590 kPa, x1 = 0.2	–	24.92 ± 0.08
533.15 K, 2034 kPa, x1 = 0.8	–	36.67 ± 0.11
533.15 K, 2979 kPa, x1 = 0.8	–	58.39 ± 0.18
533.15 K, 3245 kPa, x1 = 0.2	–	52.98 ± 0.17
533.15 K, 3545 kPa, x1 = 0.8	–	73.76 ± 0.23
533.15 K, 3768 kPa, x1 = 0.9	83.34 ± 0.42	–
533.15 K, 4255 kPa, x1 = 0.2	–	91.37 ± 0.29
533.15 K, 4552 kPa, x1 = 0.8	106.35 ± 0.54	–
533.15 K, 4745 kPa, x1 = 0.2	–	114.3 ± 0.36
533.15 K, 4839 kPa, x1 = 0.9	123.29 ± 0.63	–
533.15 K, 5078 kPa, x1 = 0.9	134.05 ± 0.68	–
533.15 K, 5281 kPa, x1 = 0.2	150.27 ± 0.76	–
533.15 K, 5454 kPa, x1 = 0.8	140.24 ± 0.71	–
533.15 K, 5541 kPa, x1 = 0.2	175.53 ± 1	–
533.15 K, 5638 kPa, x1 = 0.2	189.54 ± 1.1	–
533.15 K, 5660 kPa, x1 = 0.9	163.88 ± 0.83	–
533.15 K, 5720 kPa, x1 = 0.8	155.97 ± 0.8	–
533.15 K, 5833 kPa, x1 = 0.2	219.99 ± 1.1	–
533.15 K, 5973 kPa, x1 = 0.8	169.7 ± 0.87	–
533.15 K, 5993 kPa, x1 = 0.2	245.35 ± 1.4	–
533.15 K, 6071 kPa, x1 = 0.8	175.94 ± 0.89	–
533.15 K, 6078 kPa, x1 = 0.2	259.07 ± 1.4	–
533.15 K, 6109 kPa, x1 = 0.2	262.77 ± 1.4	–
533.15 K, 6137 kPa, x1 = 0.9	189.36 ± 0.96	–
533.15 K, 6162 kPa, x1 = 0.2	272.22 ± 1.5	–
533.15 K, 6177 kPa, x1 = 0.8	180.74 ± 0.92	–
533.15 K, 6285 kPa, x1 = 0.2	290.39 ± 1.5	–
533.15 K, 6384 kPa, x1 = 0.8	193.07 ± 0.98	–
533.15 K, 6395 kPa, x1 = 0.9	202.28 ± 1	–
533.15 K, 6426 kPa, x1 = 0.2	306.67 ± 1.6	–
533.15 K, 6463 kPa, x1 = 0.2	310.9 ± 1.6	–
533.15 K, 6550 kPa, x1 = 0.2	318.61 ± 1.6	–
533.15 K, 6727 kPa, x1 = 0.9	220.58 ± 1.1	–
533.15 K, 6761 kPa, x1 = 0.8	213.75 ± 1.1	–
533.15 K, 6844 kPa, x1 = 0.2	341.09 ± 1.7	–
533.15 K, 6859 kPa, x1 = 0.8	219.51 ± 1.1	–
533.15 K, 6879 kPa, x1 = 0.2	343.88 ± 1.7	–
533.15 K, 6955 kPa, x1 = 0.9	232.95 ± 1.2	–
533.15 K, 7014 kPa, x1 = 0.9	236.41 ± 1.2	–
533.15 K, 7092 kPa, x1 = 0.9	240.81 ± 1.2	–
533.15 K, 7159 kPa, x1 = 0.9	244.12 ± 1.2	–
